SMILES strings stand for the structures.

One test has as its system UKE1 cells. The test is described as follows: Growth inhibition GI50, UKE1 cells. The test is classed as cell-based. The settings on record: UKE1, Table 2; read-out: GI50 (UKE1).
The next test deals with MM1.S cells. The test is described as follows: Antiproliferative activity, MM1.S cells. The test is classed as cell-based. The settings on record: Homo sapiens; for GI50: Table 2, read-out: GI50 (MM1S). On the procedure:
Cellular activity of promising compounds is assessed using MM.1S and MV4-11 AML cells using c-Myc levels as biomarker (6-12 hr treatment) and antiproliferative activity (48-72 hr treatment) as described (Ciceri et al., Dual kinase-bromodomain inhibitors for rationally designed polypharmacology. Nat Chem Biol 2014).

In the next test the target is BRD4 (Homo sapiens (Human), UniProt O60885). The test is described as follows: BRD4 DSF thermal shift (ΔTm). The test is classed as binding. The settings on record: for BRD4 DSF (ΔTm): Table 2.

On to `Cc1cnc(Nc2cc(F)c(C3CCN(C)CC3)cn2)nc1Nc1cc(F)cc(NS(=O)(=O)C(C)(C)C)c1` [PN3-054, N-(3-Fluoro-5-((2-((4-fluoro-5-(1-methylpiperidin-4-yl)pyridin-2-yl)amino)-5-methylpyrimidin-4-yl)amino)phenyl)-2-methylpropane-2-sulfonamide], for which the concentration for 50% growth inhibition (GI50) in the test on UKE1 cells was 449 nM. On to `Cc1cnc(Nc2cc(F)c(C3CCN(C)CC3)cn2)nc1Nc1cccc(NS(=O)(=O)C(C)(C)C)n1` [MA11-038, N-(6-((2-((4-fluoro-5-(1-methylpiperidin-4-yl)pyridin-2-yl)amino)-5-methylpyrimidin-4-yl)amino)pyridin-2-yl)-2-methylpropane-2-sulfonamide], for which the 50% growth inhibitory concentration (GI50) in the test on UKE1 cells was found to be 5600 nM.

As to `Cc1cnc(Nc2ccc(C3CCN(C)CC3)c(F)c2)nc1Nc1cc(F)cc(NS(=O)(=O)C(C)(C)C)c1` [PN3-052, N-(3-Fluoro-5-((2-((3-fluoro-4-(1-methylpiperidin-4-yl)phenyl)amino)-5-methylpyrimidin-4-yl)amino)phenyl)-2-methylpropane-2-sulfonamide], the GI50 in the test on UKE1 cells came out at 270 nM.

Take `Cc1cnc(Nc2cc(F)c(C3CCN(C)CC3)cn2)nc1Nc1cc(Cl)cc(NS(=O)(=O)C(C)(C)C)c1` [PN3-074, N-(3-Chloro-5-((2-((4-fluoro-5-(1-methylpiperidin-4-yl)pyridin-2-yl)amino)-5-methylpyrimidin-4-yl)amino)phenyl)-2-methylpropane-2-sulfonamide]: the GI50 in the test with UKE1 cells turned out to be 937 nM. Regarding `Cc1cnc(Nc2cc(F)c(C3CCN(C)CC3)c(F)c2)nc1Nc1ccc(F)c(NS(=O)(=O)C(C)(C)C)c1` [PN2-123, N-(5-((2-((3,5-Difluoro-4-(1-methylpiperidin-4-yl)phenyl)amino)-5-methylpyrimidin-4-yl)amino)-2-fluorophenyl)-2-methylpropane-2-sulfonamide], the GI50 with MM1.S cells came out at 81 nM. Moreover, the “BRD4 DSF (ΔTm)” value on BRD4 was determined as 14.7 °C. For the compound `Cc1cnc(Nc2cc(F)c(C3CCN(C)CC3)c(F)c2)nc1Nc1ccc(Cl)c(NS(=O)(=O)C(C)(C)C)c1` [PN2-122, N-(2-Chloro-5-((2-((3,5-difluoro-4-(1-methylpiperidin-4-yl)phenyl)amino)-5-methylpyrimidin-4-yl)amino)phenyl)-2-methylpropane-2-sulfonamide], in the test with MM1.S cells, the GI50 is 93 nM. Further, the “BRD4 DSF (ΔTm)” value at BRD4 amounted to 15.2 °C. On the same counts, the results for `Cc1cnc(Nc2ccc(C3CCN(C)CC3)c(F)n2)nc1Nc1cccc(NS(=O)(=O)C(C)(C)C)c1` [PN2-117, N-(3-((2-((6-Fluoro-5-(1-methylpiperidin-4-yl)pyridin-2-yl)amino)-5-methylpyrimidin-4-yl)amino)phenyl)-2-methylpropane-2-sulfonamide] are 153 nM and 11.0 °C. On the same counts, the results for `CN1CCC(c2ccc(Nc3ncc(-c4cnn(C)c4)c(Nc4ccc(Cl)c(NS(=O)(=O)C(C)(C)C)c4)n3)cc2F)CC1` [PN1-145, N-(2-Chloro-5-((2-((3-fluoro-4-(1-methylpiperidin-4-yl)phenyl)amino)-5-(1-methyl-1H-pyrazol-4-yl)pyrimidin-4-yl)amino)phenyl)-2-methylpropane-2-sulfonamide] are 220 nM and 7.1 °C.

For `Cc1cnc(Nc2cc(F)c(C3CCN(C)CC3)c(F)c2)nc1Nc1cc(Cl)cc(NS(=O)(=O)C(C)(C)C)c1` [PN3-075, N-(3-Chloro-5-((2-((3,5-difluoro-4-(1-methylpiperidin-4-yl)phenyl)amino)-5-methylpyrimidin-4-yl)amino)phenyl)-2-methylpropane-2-sulfonamide], in the test with UKE1 cells, the GI50 stood at 556 nM. With `Cc1cnc(Nc2cc(F)cc(N3CCN(C)CC3)c2)nc1Nc1cccc(NS(=O)(=O)C(C)(C)C)c1` [drawing 14], in the test with MM1.S cells (Table 1 comments), the IC50 is 220 nM. In addition, the “DSF ΔTm” value at BRD4 (Table 1) was found to be 11.1 °C. As for `CN1CCC(c2ccc(Nc3ncc(C#N)c(Nc4ccc(Cl)c(NS(=O)(=O)C(C)(C)C)c4)n3)cc2F)CC1` [PN1-138, N-(2-Chloro-5-((5-cyano-2-((3-fluoro-4-(1-methylpiperidin-4-yl)phenyl)amino)pyrimidin-4-yl)amino)phenyl)-2-methylpropane-2-sulfonamide], the GI50 in the test with MM1.S cells was 890 nM. At BRD4, the “BRD4 DSF (ΔTm)” value came to 7.6 °C. For the compound `Cc1cnc(Nc2ccc(C3CCN(C)CC3)c(F)c2)cc1Nc1ccc2c(c1)N(S(=O)(=O)C(C)(C)C)CC2` [MA9-064, N4-(1-(Tert-butylsulfonyl)indolin-6-yl)-N2-(3-fluoro-4-(1-methylpiperidin-4-yl)phenyl)-5-methylpyridine-2,4-diamine], the GI50 in the test with MM1.S cells came to 1600 nM. For the same compound, on BRD4, the “BRD4 DSF (ΔTm)” value came out at 8.2 °C. Taken in the same sequence, the figures for `CN1CCC(c2ccc(Nc3ncc(C(N)=O)c(Nc4ccc(Cl)c(NS(=O)(=O)C(C)(C)C)c4)n3)cc2F)CC1` [PN1-134, 4-((4-Chloro-3-((1,1-dimethylethyl)sulfonamido)phenyl)amino)-2-((3-fluoro-4-(1-methylpiperidin-4-yl)phenyl)amino)pyrimidine-5-carboxamide] were 580 nM and 13.7 °C. Taken in the same sequence, the figures for `Cc1cnc(Nc2ccc(C3CCN(C)CC3)c(F)n2)nc1Nc1ccc(Cl)c(NS(=O)(=O)C(C)(C)C)c1` [PN2-102, N-(2-Chloro-5-((2-((6-fluoro-5-(1-methylpiperidin-4-yl)pyridin-2-yl)amino)-5-methylpyrimidin-4-yl)amino)phenyl)-2-methylpropane-2-sulfonamide] were 109 nM and 13.0 °C. On the same counts, the results for `Cc1cnc(Nc2ccc(C3CCN(C)CC3)c(F)c2)cc1Nc1cccc(NS(=O)(=O)C(C)(C)C)c1` [SY3-039, N-(3-((2-((3-Fluoro-4-(1-methylpiperidin-4-yl)phenyl)amino)-5-methylpyridin-4-yl)amino)phenyl)-2-methylpropane-2-sulfonamide] are 1600 nM and 6.7 °C. As for `CN1CCC(c2ccc(Nc3ncc(I)c(Nc4ccc(Cl)c(NS(=O)(=O)C(C)(C)C)c4)n3)cc2F)CC1` [PN1-118, N-(2-Chloro-5-((2-((3-fluoro-4-(1-methylpiperidin-4-yl)phenyl)amino)-5-iodopyrimidin-4-yl)amino)phenyl)-2-methylpropane-2-sulfonamide], the GI50 in the test on MM1.S cells turned out to be 210 nM. Besides, the “BRD4 DSF (ΔTm)” value at BRD4 came out at 11.6 °C. On the same counts, the results for `CN1CCC(c2ccc(Nc3ncc(N)c(Nc4ccc(Cl)c(NS(=O)(=O)C(C)(C)C)c4)n3)cc2F)CC1` [PN1-140, N-(5-((5-Amino-2-((3-fluoro-4-(1-methylpiperidin-4-yl)phenyl)amino)pyrimidin-4-yl)amino)-2-chlorophenyl)-2-methylpropane-2-sulfonamide] are 1800 nM and 9.5 °C. As for `Cc1cnc(Nc2ccc(C3CCN(C)CC3)c(F)c2)nc1Nc1ccc(F)c(NS(=O)(=O)C(C)(C)C)c1` [PN2-118, N-(2-Fluoro-5-((2-((3-fluoro-4-(1-methylpiperidin-4-yl)phenyl)amino)-5-methylpyrimidin-4-yl)amino)phenyl)-2-methylpropane-2-sulfonamide], in the test with MM1.S cells, the GI50 is 83 nM. In addition, the “BRD4 DSF (ΔTm)” value on BRD4 is 13.0 °C. Taken in the same sequence, the figures for `CN1CCC(c2ccc(Nc3ncc(C(F)F)c(Nc4ccc(Cl)c(NS(=O)(=O)C(C)(C)C)c4)n3)cc2F)CC1` [PN1-117, N-(2-Chloro-5-((5-(difluoromethyl)-2-((3-fluoro-4-(1-methylpiperidin-4-yl)phenyl)amino)pyrimidin-4-yl)amino)phenyl)-2-methylpropane-2-sulfonamide] were 240 nM and 12.7 °C.
